Measured values: US10988524B2, “Modified relaxin B chain peptides and their therapeutic use” (priority 2018, dated 2021)
Non-standard residues stand in square brackets, D forms with d. Residues, ends and D or L forms follow the SMILES beside them. Phe(4-F) = N[C@@H](Cc1ccc(F)cc1)C(=O)O; Nle = CCCC[C@H](N)C(=O)O; Aib = CC(C)(N)C(=O)O

Columns and labels:
[1] = Solubility testing of peptides in buffer; format: physicochemical; conditions: Phosphate buffer 50 mM pH 7.4; target solubility 2.0 mg/ml; ~19 h; read-out: Solubility phosphate buffer pH 7.4
RXFP1 = biological target: T1, RXFP1 (Homo sapiens, UniProt Q9HBX9); test: OVCAR5 cAMP assay (RXFP1 agonist activity, HTRF); conditions: for Emax: OVCAR-5, read-out: cAMP assay in OVCAR 5 cells Emax, maximal intracellular cAMP relative to H2-relaxin in the same test occasion; for EC50: cAMP assay in OVCAR 5 cells EC50 (nM), OVCAR5 cells expressing endogenous RXFP1, cAMP by HTRF, 30 min at 37° C., 1 mM IBMX
T1 sequence (Q9HBX9 1-757): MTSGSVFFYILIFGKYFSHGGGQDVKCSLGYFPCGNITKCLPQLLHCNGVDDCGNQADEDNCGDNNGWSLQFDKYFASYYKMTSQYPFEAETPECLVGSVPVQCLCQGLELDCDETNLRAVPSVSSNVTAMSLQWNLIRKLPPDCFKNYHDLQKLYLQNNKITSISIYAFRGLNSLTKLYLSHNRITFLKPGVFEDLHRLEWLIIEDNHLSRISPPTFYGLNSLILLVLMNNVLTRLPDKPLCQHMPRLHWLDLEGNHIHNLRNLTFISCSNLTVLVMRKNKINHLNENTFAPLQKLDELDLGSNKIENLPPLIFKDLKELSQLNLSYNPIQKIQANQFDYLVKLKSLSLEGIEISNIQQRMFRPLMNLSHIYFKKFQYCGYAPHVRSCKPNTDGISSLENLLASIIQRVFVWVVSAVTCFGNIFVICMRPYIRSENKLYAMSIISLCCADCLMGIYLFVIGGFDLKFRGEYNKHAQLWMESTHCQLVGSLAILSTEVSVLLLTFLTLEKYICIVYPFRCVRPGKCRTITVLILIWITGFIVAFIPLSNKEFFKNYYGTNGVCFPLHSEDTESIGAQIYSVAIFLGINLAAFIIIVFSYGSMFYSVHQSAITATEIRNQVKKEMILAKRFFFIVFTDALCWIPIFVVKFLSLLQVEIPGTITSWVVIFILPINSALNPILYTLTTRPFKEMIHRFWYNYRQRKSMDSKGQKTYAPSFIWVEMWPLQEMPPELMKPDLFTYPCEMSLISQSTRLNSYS

| solubility [1] [µg/mL] | Emax (RXFP1) [%] | EC50 (RXFP1) [nM] | cAMP assay in OVCAR 5 cells Emax (RXFP1; maximal intracellular cAMP relative to H2-relaxin in the same test occasion) [%] | Structure (SMILES) |
| --- | --- | --- | --- | --- |
| ≥ 2400 | – | – | 96 | CC[C@H](C)[C@H](NC(=O)[C@H](CCC(N)=O)NC(=O)[C@H](C)NC(=O)[C@H](CCCNC(=N)N)NC(=O)[C@@H](NC(=O)[C@H](CCCCN)NC(=O)[C@H](CCC(=O)O)NC(=O)[C@H](CCCNC(=N)N)NC(=O)CNC(=O)[C@H](CCC(=O)O)NC(=O)[C@H](CC(C)C)NC(C)=O)C(C)C)C(=O)NC(C)(C)C(=O)NC(C)(C)C(=O)N[C@@H](CCC(=O)O)C(=O)NCC(=O)N[C@@H](CCC(N)=O)C(=O)N[C@@H](CO)C(=O)N[C@H](C(=O)N[C@@H](Cc1c[nH]c2ccccc12)C(=O)N[C@@H](CO)C(=O)NC(C)(C)C(=O)N[C@@H](CCCNC(=N)N)C(=O)N[C@@H](CCCCN)C(=O)N[C@@H](CCCCN)C(N)=O)[C@@H](C)O [compound 54] (Ac-LEGREKVRAQI[Aib][Aib]EGQSTWS[Aib]RKK-NH2) |
| ≥ 2500 | 88 | ≤ 5 | – | CCCC[C@H](NC(=O)CNC(=O)[C@H](CCC(=O)O)NC(=O)C(C)(C)NC(=O)C(C)(C)NC(=O)[C@@H](NC(=O)[C@H](CCC(N)=O)NC(=O)[C@H](C)NC(=O)[C@H](CCCNC(=N)N)NC(=O)[C@@H](NC(=O)[C@H](CCCCN)NC(=O)[C@H](CCC(=O)O)NC(=O)[C@H](CCCNC(=N)N)NC(=O)CNC(=O)[C@H](CCC(=O)O)NC(=O)[C@H](CC(C)C)NC(C)=O)C(C)C)[C@@H](C)CC)C(=O)N[C@@H](CO)C(=O)N[C@@H](CCCNC(=N)N)C(=O)N[C@@H](Cc1c[nH]c2ccccc12)C(=O)N[C@@H](CO)C(=O)NC(C)(C)C(=O)N[C@@H](CCCNC(=N)N)C(=O)N[C@@H](CCCNC(=N)N)C(=O)N[C@@H](CCCNC(=N)N)C(N)=O [compound 55] (Ac-LEGREKVRAQI[Aib][Aib]EG[Nle]SRWS[Aib]RRR-NH2) |
| ≥ 2000 | 93 | – | – | CC[C@H](C)[C@H](NC(=O)[C@H](CCC(N)=O)NC(=O)[C@H](C)NC(=O)[C@H](CCCNC(=N)N)NC(=O)[C@@H](NC(=O)[C@H](CCCCN)NC(=O)[C@H](CCC(=O)O)NC(=O)[C@H](CCCNC(=N)N)NC(=O)CNC(=O)[C@H](CCC(=O)O)NC(=O)[C@H](CC(C)C)NC(C)=O)C(C)C)C(=O)NC(C)(C)C(=O)NC(C)(C)C(=O)N[C@@H](CCC(=O)O)C(=O)NCC(=O)N[C@@H](CCC(N)=O)C(=O)N[C@@H](CO)C(=O)N[C@H](C(=O)N[C@@H](Cc1ccc(O)cc1)C(=O)N[C@@H](CO)C(=O)NC(C)(C)C(=O)N[C@@H](CCCNC(=N)N)C(=O)N[C@@H](CCCCN)C(=O)N[C@@H](CCCCN)C(N)=O)[C@@H](C)O [compound 58] (Ac-LEGREKVRAQI[Aib][Aib]EGQSTYS[Aib]RKK-NH2) |
| ≥ 2400 | 86 | – | – | CC[C@H](C)[C@H](NC(=O)[C@H](CCC(N)=O)NC(=O)[C@H](C)NC(=O)[C@H](CCCNC(=N)N)NC(=O)[C@@H](NC(=O)[C@H](CCCCN)NC(=O)[C@H](CCC(=O)O)NC(=O)[C@H](CCCNC(=N)N)NC(=O)CNC(=O)[C@H](CCC(=O)O)NC(=O)[C@H](CC(C)C)NC(C)=O)C(C)C)C(=O)NC(C)(C)C(=O)NC(C)(C)C(=O)N[C@@H](CCC(=O)O)C(=O)NCC(=O)N[C@@H](CCC(N)=O)C(=O)N[C@@H](CO)C(=O)N[C@H](C(=O)N[C@@H](Cc1ccc(F)cc1)C(=O)N[C@@H](CO)C(=O)NC(C)(C)C(=O)N[C@@H](CCCNC(=N)N)C(=O)N[C@@H](CCCCN)C(=O)N[C@@H](CCCCN)C(N)=O)[C@@H](C)O [compound 59] (Ac-LEGREKVRAQI[Aib][Aib]EGQST[Phe(4-F)]S[Aib]RKK-NH2) |

Second part, the molecule before the results:

| Structure (SMILES) | solubility [1] [µg/mL] | Emax (RXFP1) [%] | EC50 (RXFP1) [nM] | cAMP assay in OVCAR 5 cells Emax (RXFP1; maximal intracellular cAMP relative to H2-relaxin in the same test occasion) [%] |
| --- | --- | --- | --- | --- |
| CCCC[C@H](NC(=O)CNC(=O)[C@H](CCC(=O)O)NC(=O)C(C)(C)NC(=O)C(C)(C)NC(=O)[C@@H](NC(=O)[C@H](CCC(N)=O)NC(=O)[C@H](C)NC(=O)[C@H](CCCNC(=N)N)NC(=O)[C@@H](NC(=O)[C@H](CCCCN)NC(=O)[C@H](CCC(=O)O)NC(=O)[C@H](CCCNC(=N)N)NC(=O)CNC(=O)[C@H](CCC(=O)O)NC(=O)[C@H](CC(C)C)NC(C)=O)C(C)C)[C@@H](C)CC)C(=O)N[C@@H](CO)C(=O)N[C@H](C(=O)N[C@@H](Cc1c[nH]c2ccccc12)C(=O)N[C@@H](CO)C(=O)NC(C)(C)C(=O)N[C@@H](CCCNC(=N)N)C(=O)N[C@@H](CCCNC(=N)N)C(=O)N[C@@H](CCCNC(=N)N)C(N)=O)[C@@H](C)O [compound 50] (Ac-LEGREKVRAQI[Aib][Aib]EG[Nle]STWS[Aib]RRR-NH2) | ≥ 2300 | 90 | ≤ 5 | – |
| CCCC[C@H](NC(=O)CNC(=O)[C@H](CCC(=O)O)NC(=O)C(C)(C)NC(=O)C(C)(C)NC(=O)[C@@H](NC(=O)[C@H](CCC(N)=O)NC(=O)[C@H](C)NC(=O)[C@H](CCCNC(=N)N)NC(=O)[C@@H](NC(=O)[C@H](CCCCN)NC(=O)[C@H](CCC(=O)O)NC(=O)[C@H](CCCNC(=N)N)NC(=O)CNC(=O)[C@H](CCC(=O)O)NC(=O)[C@H](CC(C)C)NC(C)=O)C(C)C)[C@@H](C)CC)C(=O)N[C@@H](CO)C(=O)N[C@H](C(=O)N[C@@H](Cc1ccccc1)C(=O)N[C@@H](CO)C(=O)NC(C)(C)C(=O)N[C@@H](CCCNC(=N)N)C(=O)N[C@@H](CCCCN)C(=O)N[C@@H](CCCCN)C(N)=O)[C@@H](C)O [compound 51] (Ac-LEGREKVRAQI[Aib][Aib]EG[Nle]STFS[Aib]RKK-NH2) | ≥ 2400 | 98 | – | – |
| CCCC[C@H](NC(=O)CNC(=O)[C@H](CCC(=O)O)NC(=O)C(C)(C)NC(=O)C(C)(C)NC(=O)[C@@H](NC(=O)[C@H](CCC(N)=O)NC(=O)[C@H](C)NC(=O)[C@H](CCCNC(=N)N)NC(=O)[C@@H](NC(=O)[C@H](CCCCN)NC(=O)[C@H](CCC(=O)O)NC(=O)[C@H](CCCNC(=N)N)NC(=O)CNC(=O)[C@H](CCC(=O)O)NC(=O)[C@H](CC(C)C)NC(C)=O)C(C)C)[C@@H](C)CC)C(=O)N[C@@H](CO)C(=O)N[C@@H](CCC(N)=O)C(=O)N[C@@H](Cc1c[nH]c2ccccc12)C(=O)N[C@@H](CO)C(=O)NC(C)(C)C(=O)N[C@@H](CCCNC(=N)N)C(=O)N[C@@H](CCCNC(=N)N)C(=O)N[C@@H](CCCNC(=N)N)C(N)=O [compound 52] (Ac-LEGREKVRAQI[Aib][Aib]EG[Nle]SQWS[Aib]RRR-NH2) | ≥ 2300 | 94 | ≤ 10 | – |
| CCCC[C@H](NC(=O)CNC(=O)[C@H](CCC(=O)O)NC(=O)C(C)(C)NC(=O)C(C)(C)NC(=O)[C@@H](NC(=O)[C@H](CCC(N)=O)NC(=O)[C@H](C)NC(=O)[C@H](CCCNC(=N)N)NC(=O)[C@@H](NC(=O)[C@H](CCCCN)NC(=O)[C@H](CCC(=O)O)NC(=O)[C@H](CCCNC(=N)N)NC(=O)CNC(=O)[C@H](CCC(=O)O)NC(=O)[C@H](CC(C)C)NC(C)=O)C(C)C)[C@@H](C)CC)C(=O)N[C@@H](CO)C(=O)N[C@H](C(=O)N[C@@H](Cc1ccc(O)cc1)C(=O)N[C@@H](CO)C(=O)NC(C)(C)C(=O)N[C@@H](CCCNC(=N)N)C(=O)N[C@@H](CCCCN)C(=O)N[C@@H](CCCCN)C(N)=O)[C@@H](C)O [compound 53] (Ac-LEGREKVRAQI[Aib][Aib]EG[Nle]STYS[Aib]RKK-NH2) | ≥ 2100 | 75 | – | – |
